Values quoted from earlier work, collected in patent publication US5208032A, “Increasing the growth of turkeys using implant of 19-nortestosterone” (Rutgers, The State University of New Jersey, priority 1992, dated 1993).

Columns and labels:
testosterone antiserum = conditions: manufacturer statement; cited from earlier work
5-alpha-DHT anti-serum = conditions: antibody provided by Dr. Alan L. Johnson; cited from earlier work
[1] = mice, Innovative Research pellets, 21 days; cited from earlier work

Compound	cross-reaction with Immuchem testosterone antiserum (testosterone antiserum)	reaction with 5-alpha-DHT anti-serum (Ford's-F/1) (5-alpha-DHT anti-serum) [%]	maintained blood levels [1] [ng/mL]
C[C@]12CCC(=O)C=C1CC[C@@H]1[C@@H]2CC[C@]2(C)C(=O)CC[C@@H]12 [4-adrosten-3,17-dione]	0.56%	11.4	–
C[C@]12CC[C@@H](O)C[C@@H]1CC[C@@H]1[C@@H]2CC[C@]2(C)[C@@H](O)CC[C@@H]12 [5-alpha-androstane-3-alpha,17-beta-diol]	less than 0.01%	–	–
C[C@]12CC[C@@H]3c4ccc(O)cc4CC[C@H]3[C@@H]1CC[C@@H]2O [17 beta-estradiol]	–	–	20 to 30
